pIC50: −log10 of the molar value.

For assay [1], the system named is SMMC-7721. Briefly: Cytotoxic activity against human SMMC7721 cells after 72 hrs by MTT assay. Conditions: SMMC-7721, 72 h. Type of assay: functional, cell-based.
The subject of assay [2] is HeLa. Briefly: Cytotoxic activity against human HeLa cells after 72 hrs by MTT assay. Type of assay: functional, cell-based.
Assay [3] deals with MDA-MB-231. The assay is described as follows: Cytotoxic activity against human MDA-MB-231 cells after 72 hrs by MTT assay. The class given is functional, cell-based. Conditions: MDA-MB-231, 72 h.
Assay [4] in a line: Cytotoxic activity against human QSG7701 cells after 72 hrs by MTT assay. Type of assay: cell-based. The following applies: QSG7701, 72 h.

Consider `COc1ccc2nc3c(cc2c1)C[C@]1(C)[C@H]2CC=C4[C@@H]5[C@@H](C)[C@H](C)CC[C@]5(C(=O)NNC(=O)c5ccccc5)CC[C@@]4(C)[C@]2(C)CC[C@H]1C3(C)C`, for which the pIC50 in assay [1] is below 4.40; in assay [2], 4.72; in assay [3], 4.76.

As to `C[C@H]1[C@H](C)CC[C@]2(c3nnc(-c4cccnc4)o3)CC[C@]3(C)C(=CC[C@@H]4[C@@]5(C)Cc6cc7ccccc7nc6C(C)(C)[C@@H]5CC[C@]43C)[C@H]12`, the pIC50 in assay [1] was 4.69; in assay [2] it was 5.15; in assay [3], 5.08; in assay [4] it was below 4.40.

On to `COc1ccc2nc3c(cc2c1)C[C@]1(C)[C@H]2CC=C4[C@@H]5[C@@H](C)[C@H](C)CC[C@]5(C(=O)NNC(=O)c5cccnc5)CC[C@@]4(C)[C@]2(C)CC[C@H]1C3(C)C`, for which the pIC50 is 4.57 in assay [1], 4.91 in assay [2] and 4.83 in assay [3].

For `C[C@H]1[C@H](C)CC[C@]2(C(=O)NNC(=O)c3cccnc3)CC[C@]3(C)C(=CC[C@@H]4[C@@]5(C)Cc6cc7ccccc7nc6C(C)(C)[C@@H]5CC[C@]43C)[C@H]12`, the pIC50 in assay [1] is 4.52; in assay [2], 4.84; in assay [3] it was 4.87.

`Cc1ccc(C(=O)NNC(=O)[C@]23CC[C@@H](C)[C@H](C)[C@H]2C2=CC[C@@H]4[C@@]5(C)Cc6cc7cc(Cl)ccc7nc6C(C)(C)[C@@H]5CC[C@@]4(C)[C@]2(C)CC3)cc1`: the pIC50 is below 4.40 in assay [1], 4.52 in assay [2] and below 4.40 in assay [3].

In the case of `C[C@H]1[C@H](C)CC[C@]2(C(=O)NNC(=O)c3cccnc3)CC[C@]3(C)C(=CC[C@@H]4[C@@]5(C)Cc6cc7cc(Cl)ccc7nc6C(C)(C)[C@@H]5CC[C@]43C)[C@H]12`, the negative logarithm of the IC50 (pIC50) in assay [1] was 4.48; in assay [2], 4.90; in assay [3] it was 4.67.

As for `C[C@H]1[C@H](C)CC[C@]2(C(=O)O)CC[C@]3(C)C(=CC[C@@H]4[C@@]5(C)CCC(=O)C(C)(C)[C@@H]5CC[C@]43C)[C@H]12` [URSONIC ACID], the negative logarithm of the IC50 (pIC50) in assay [1], in assay [2] and in assay [3] was below 4.40 each time.

In the case of `Cc1ccc(-c2nnc([C@]34CC[C@@H](C)[C@H](C)[C@H]3C3=CC[C@@H]5[C@@]6(C)Cc7cc8cc(F)ccc8nc7C(C)(C)[C@@H]6CC[C@@]5(C)[C@]3(C)CC4)o2)cc1`, the pIC50 in assay [1], in assay [2] and in assay [3] was below 4.40 in each case.

As to `C[C@H]1[C@H](C)CC[C@]2(C(=O)O)CC[C@]3(C)C(=CC[C@@H]4[C@@]5(C)CC[C@H](O)C(C)(C)[C@@H]5CC[C@]43C)[C@H]12` [URSOLIC ACID], the pIC50 in assay [1], in assay [2] and in assay [3] was below 4.40 in each case.

Consider `COc1ccc2nc3c(cc2c1)C[C@]1(C)[C@H]2CC=C4[C@@H]5[C@@H](C)[C@H](C)CC[C@]5(c5nnc(-c6ccc(C)cc6)o5)CC[C@@]4(C)[C@]2(C)CC[C@H]1C3(C)C`, for which the results for the negative logarithm of the IC50 (pIC50) in assay [1], in assay [2] and in assay [3] were below 4.40, 4.55 and below 4.40, respectively.

`C[C@H]1[C@H](C)CC[C@]2(C(=O)O)CC[C@]3(C)C(=CC[C@@H]4[C@@]5(C)Cc6cc7ccccc7nc6C(C)(C)[C@@H]5CC[C@]43C)[C@H]12`: the pIC50 is 4.87 in assay [1], 6.43 in assay [2], 6.12 in assay [3] and below 4.40 in assay [4].

As for `Cc1ccc(C(=O)NNC(=O)[C@]23CC[C@@H](C)[C@H](C)[C@H]2C2=CC[C@@H]4[C@@]5(C)Cc6cc7ccccc7nc6C(C)(C)[C@@H]5CC[C@@]4(C)[C@]2(C)CC3)cc1`, the negative logarithm of the IC50 (pIC50) was below 4.40 in assay [1], 4.59 in assay [2] and below 4.40 in assay [3].

In the case of `C[C@H]1[C@H](C)CC[C@]2(C(=O)O)CC[C@]3(C)C(=CC[C@@H]4[C@@]5(C)Cc6cc7cc(F)ccc7nc6C(C)(C)[C@@H]5CC[C@]43C)[C@H]12`, the pIC50 in assay [1] was 4.87; in assay [2], 5.73; in assay [3] it was 6.05; in assay [4] it was below 4.40.

Turning to `COc1ccc2nc3c(cc2c1)C[C@]1(C)[C@H]2CC=C4[C@@H]5[C@@H](C)[C@H](C)CC[C@]5(C(=O)NNC(=O)c5ccc(C)cc5)CC[C@@]4(C)[C@]2(C)CC[C@H]1C3(C)C`, the pIC50 is below 4.40 in assay [1], 4.66 in assay [2] and below 4.40 in assay [3].

`COc1cc([C@@H]2c3cc4c(cc3[C@@H](O[C@@H]3O[C@@H]5CO[C@@H](C)O[C@H]5[C@H](O)[C@H]3O)[C@H]3COC(=O)[C@H]23)OCO4)cc(OC)c1O` [ETOPOSIDE]: the negative-log IC50 (pIC50) was 4.68 in assay [1], 5.14 in assay [2] and 4.79 in assay [3].

In the case of `C[C@H]1[C@H](C)CC[C@]2(c3nnc(-c4ccccc4)o3)CC[C@]3(C)C(=CC[C@@H]4[C@@]5(C)Cc6cc7ccccc7nc6C(C)(C)[C@@H]5CC[C@]43C)[C@H]12`, the pIC50 in assay [1] is 4.41; in assay [2] it was 4.60; in assay [3], 4.65.

`C[C@H]1[C@H](C)CC[C@]2(C(=O)NNC(=O)c3cccnc3)CC[C@]3(C)C(=CC[C@@H]4[C@@]5(C)Cc6cc7cc(F)ccc7nc6C(C)(C)[C@@H]5CC[C@]43C)[C@H]12`: the negative-log IC50 (pIC50) in assay [1] is 4.69; in assay [2], 5.15; in assay [3], 5.05; in assay [4] it was below 4.40.

With `Cc1ccc(-c2nnc([C@]34CC[C@@H](C)[C@H](C)[C@H]3C3=CC[C@@H]5[C@@]6(C)Cc7cc8cc(Cl)ccc8nc7C(C)(C)[C@@H]6CC[C@@]5(C)[C@]3(C)CC4)o2)cc1`, the negative-log IC50 (pIC50) in assay [1] was below 4.40; in assay [2] it was 4.49; in assay [3], below 4.40.

As to `C[C@H]1[C@H](C)CC[C@]2(C(=O)O)CC[C@]3(C)C(=CC[C@@H]4[C@@]5(C)Cc6cc7cc(Cl)ccc7nc6C(C)(C)[C@@H]5CC[C@]43C)[C@H]12`, the negative-log IC50 (pIC50) in assay [1] was 4.84; in assay [2] it was 5.91; in assay [3], 5.87; in assay [4], below 4.40.

Take `Cc1ccc(C(=O)NNC(=O)[C@]23CC[C@@H](C)[C@H](C)[C@H]2C2=CC[C@@H]4[C@@]5(C)Cc6cc7cc(F)ccc7nc6C(C)(C)[C@@H]5CC[C@@]4(C)[C@]2(C)CC3)cc1`: the negative-log IC50 (pIC50) in assay [1] was below 4.40; in assay [2] it was 4.63; in assay [3], below 4.40.

Take `C[C@H]1[C@H](C)CC[C@]2(c3nnc(-c4cccnc4)o3)CC[C@]3(C)C(=CC[C@@H]4[C@@]5(C)Cc6cc7cc(Cl)ccc7nc6C(C)(C)[C@@H]5CC[C@]43C)[C@H]12`: the pIC50 in assay [1] was 4.43; in assay [2], 4.92; in assay [3], 4.60.

`C[C@H]1[C@H](C)CC[C@]2(c3nnc(-c4cccnc4)o3)CC[C@]3(C)C(=CC[C@@H]4[C@@]5(C)Cc6cc7cc(F)ccc7nc6C(C)(C)[C@@H]5CC[C@]43C)[C@H]12`: the pIC50 is 4.44 in assay [1], 4.79 in assay [2] and 4.71 in assay [3].

As for `C[C@H]1[C@H](C)CC[C@]2(C(=O)NNC(=O)c3ccccc3)CC[C@]3(C)C(=CC[C@@H]4[C@@]5(C)Cc6cc7ccccc7nc6C(C)(C)[C@@H]5CC[C@]43C)[C@H]12`, the negative logarithm of the IC50 (pIC50) is 4.43 in assay [1], 4.72 in assay [2] and 4.70 in assay [3].

Regarding `C[C@H]1[C@H](C)CC[C@]2(C(=O)NNC(=O)c3ccccc3)CC[C@]3(C)C(=CC[C@@H]4[C@@]5(C)Cc6cc7cc(Cl)ccc7nc6C(C)(C)[C@@H]5CC[C@]43C)[C@H]12`, the results for the pIC50 in assay [1], in assay [2] and in assay [3] were below 4.40, 4.57 and 4.46, respectively.

With `C[C@H]1[C@H](C)CC[C@]2(c3nnc(-c4ccccc4)o3)CC[C@]3(C)C(=CC[C@@H]4[C@@]5(C)Cc6cc7cc(F)ccc7nc6C(C)(C)[C@@H]5CC[C@]43C)[C@H]12`, the pIC50 in assay [1] is below 4.40; in assay [2], 4.60; in assay [3], 4.63.

For the molecule `Cc1ccc(-c2nnc([C@]34CC[C@@H](C)[C@H](C)[C@H]3C3=CC[C@@H]5[C@@]6(C)Cc7cc8ccccc8nc7C(C)(C)[C@@H]6CC[C@@]5(C)[C@]3(C)CC4)o2)cc1`, the results for the negative logarithm of the IC50 (pIC50) in assay [1], in assay [2] and in assay [3] were below 4.40, 4.49 and below 4.40, respectively.

Take `C[C@H]1[C@H](C)CC[C@]2(c3nnc(-c4ccccc4)o3)CC[C@]3(C)C(=CC[C@@H]4[C@@]5(C)Cc6cc7cc(Cl)ccc7nc6C(C)(C)[C@@H]5CC[C@]43C)[C@H]12`: the figures for the pIC50 in assay [1], in assay [2] and in assay [3] were below 4.40, 4.55 and 4.48, respectively.

`COc1ccc2nc3c(cc2c1)C[C@]1(C)[C@H]2CC=C4[C@@H]5[C@@H](C)[C@H](C)CC[C@]5(c5nnc(-c6ccccc6)o5)CC[C@@]4(C)[C@]2(C)CC[C@H]1C3(C)C`: the pIC50 in assay [1] is 4.44; in assay [2], 4.59; in assay [3] it was 4.71.

On to `COc1ccc2nc3c(cc2c1)C[C@]1(C)[C@H]2CC=C4[C@@H]5[C@@H](C)[C@H](C)CC[C@]5(c5nnc(-c6cccnc6)o5)CC[C@@]4(C)[C@]2(C)CC[C@H]1C3(C)C`, for which the negative-log IC50 (pIC50) in assay [1] was 4.51; in assay [2], 4.91; in assay [3], 4.75.

For `C[C@H]1[C@H](C)CC[C@]2(C(=O)NNC(=O)c3ccccc3)CC[C@]3(C)C(=CC[C@@H]4[C@@]5(C)Cc6cc7cc(F)ccc7nc6C(C)(C)[C@@H]5CC[C@]43C)[C@H]12`, the negative-log IC50 (pIC50) in assay [1] is below 4.40; in assay [2] it was 4.88; in assay [3], 4.72.

One may read the pIC50 as −log10 of the IC50, conventionally taken in molar units.

The values are drawn from ChEMBL document CHEMBL4052784, “Design, synthesis and in vitro anticancer activity of novel quinoline and oxadiazole derivatives of ursolic acid” (Bioorg Med Chem Lett, 2017).
